Source: ChEMBL document CHEMBL1201862, “PubChem BioAssay data set” (2004)
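Results reflect a 48-hour exposure of cells in 96-well plates to compound at five concentrations. Abbreviation: GI50, concentration required for 50% inhibition of growth.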 Calls of active or inactive are those of the source. No stated cut-off is given here; in the data, active = GI50 up to about 1.1 µM and inactive = higher.

Tests used:
Assay in all cases: NCI anticancer screen, dose series, 48 h
[1] = tested on: ACHN
[2] = tested on: BT-549
[3] = tested on: COLO 205
[4] = tested on: EKVX
[5] = tested on: HL-60
[6] = tested on: Hs-578T
[7] = tested on: KM12
[8] = tested on: LOX IMVI
[9] = tested on: M14
[10] = tested on: MDA-MB-231
[11] = tested on: NCI-H23
[12] = tested on: NCI-H522
[13] = tested on: PC-3
[14] = tested on: SK-MEL-28
[15] = tested on: SK-MEL-2
[16] = tested on: SK-MEL-5
[17] = tested on: SK-OV-3
[18] = tested on: SN12C
[19] = tested on: T47D
[20] = tested on: NCI-H226

Compound | GI50 [1] | GI50 [2] | GI50 [3] | GI50 [4] | GI50 [5] | GI50 [6] | GI50 [7] | GI50 [8] | GI50 [9] | GI50 [10] | GI50 [11] | GI50 [12] | GI50 [13] | GI50 [14] | GI50 [15] | GI50 [16] | GI50 [17] | GI50 [18] | GI50 [19] | GI50 [20]
O=c1cc(CNC2CCCC2)[nH]c(=O)[nH]1 | > 100 µM (inactive) | > 100 µM (inactive) | > 100 µM (inactive) | > 100 µM (inactive) | > 100 µM (inactive) | > 100 µM (inactive) | > 100 µM (inactive) | > 100 µM (inactive) | > 100 µM (inactive) | > 100 µM (inactive) | > 100 µM (inactive) | > 100 µM (inactive) | > 100 µM (inactive) | > 100 µM (inactive) | > 100 µM (inactive) | > 100 µM (inactive) | > 100 µM (inactive) | > 100 µM (inactive) | > 100 µM (inactive) | –
COc1cc2c(cc1OC)C(Cc1ccccc1CCCl)=NCC2 | 73.3 µM (inactive) | 40.3 µM (inactive) | 26.6 µM (inactive) | > 100 µM (inactive) | 19.8 µM (inactive) | 73.5 µM (inactive) | 36.8 µM (inactive) | – | 38.1 µM (inactive) | > 100 µM (inactive) | 22 µM (inactive) | 15.9 µM (inactive) | 31.1 µM (inactive) | > 100 µM (inactive) | > 100 µM (inactive) | 22.5 µM (inactive) | > 100 µM (inactive) | > 100 µM (inactive) | 31.8 µM (inactive) | 31.3 µM (inactive)
COc1ccc(C2N(c3ccc(F)cc3)C(=O)N3C(c4ccc(OC)cc4)N(c4ccc(F)cc4)C(=O)N23)cc1 (stereo unspecified) | > 100 µM (inactive) | > 100 µM (inactive) | > 100 µM (inactive) | > 100 µM (inactive) | > 100 µM (inactive) | > 100 µM (inactive) | > 100 µM (inactive) | > 100 µM (inactive) | > 100 µM (inactive) | > 100 µM (inactive) | > 100 µM (inactive) | > 100 µM (inactive) | > 100 µM (inactive) | > 100 µM (inactive) | > 100 µM (inactive) | > 100 µM (inactive) | – | > 100 µM (inactive) | > 100 µM (inactive) | –
Cc1oc2nc(N(C)C)nc(Cl)c2c1C | > 100 µM (inactive) | > 100 µM (inactive) | > 100 µM (inactive) | 34.8 µM (inactive) | > 100 µM (inactive) | > 100 µM (inactive) | > 100 µM (inactive) | – | > 100 µM (inactive) | > 100 µM (inactive) | > 100 µM (inactive) | > 100 µM (inactive) | > 100 µM (inactive) | > 100 µM (inactive) | > 100 µM (inactive) | > 100 µM (inactive) | – | > 100 µM (inactive) | 46.7 µM (inactive) | 84.1 µM (inactive)
CC(C)(C)OC(=O)N(CCCCNCc1ccc2ccccc2c1)CCCNCc1ccc2ccccc2c1 | 1.92 µM (inactive) | 1.73 µM (inactive) | 1.17 µM (inactive) | 1.56 µM (inactive) | 0.204 µM (active) | 1.77 µM (inactive) | 1.3 µM (inactive) | – | 1.96 µM (inactive) | 1.02 µM (active) | 1.85 µM (inactive) | 1.58 µM (inactive) | 1.94 µM (inactive) | 1.8 µM (inactive) | 2.06 µM (inactive) | 1.74 µM (inactive) | 1.94 µM (inactive) | 1.75 µM (inactive) | 1.74 µM (inactive) | 1.64 µM (inactive)
Cc1ccc(/N=N/c2c(O)c(C(=O)O)cc3ccccc23)c(S(=O)(=O)O)c1 | > 100 µM (inactive) | > 100 µM (inactive) | > 100 µM (inactive) | > 100 µM (inactive) | – | > 100 µM (inactive) | > 100 µM (inactive) | > 100 µM (inactive) | > 100 µM (inactive) | > 100 µM (inactive) | > 100 µM (inactive) | > 100 µM (inactive) | > 100 µM (inactive) | > 100 µM (inactive) | > 100 µM (inactive) | > 100 µM (inactive) | > 100 µM (inactive) | > 100 µM (inactive) | > 100 µM (inactive) | > 100 µM (inactive)
CC[C@](C)(O)C(=O)O[C@H]1C(=O)O[C@@H]2C[C@H]3C(C)=CC(=O)[C@@H](O)[C@]3(C)[C@H]3[C@@]4(O)OC[C@]32[C@@H]1[C@@H](C)[C@H]4O [GLAUCARUBINONE] | 0.292 µM (active) | 0.229 µM (active) | 0.815 µM (active) | 0.0545 µM (active) | 0.05 µM (active) | 0.167 µM (active) | 0.0604 µM (active) | 0.0354 µM (active) | 0.107 µM (active) | 0.946 µM (active) | 0.0796 µM (active) | – | 0.458 µM (active) | 0.05 µM (active) | 0.0625 µM (active) | 0.0442 µM (active) | 1.02 µM (active) | 0.158 µM (active) | 0.176 µM (active) | 0.113 µM (active)
